Where two headings read alike, the source gives them in different places.
Columns and labels:
Assay type in all cases: cell-based
in vitro = details: for CC50 at 24 h: African green monkey; for CC50 at 72 h: dog
Method: The microtetrazolium test (MTT) was used to study the cytotoxicity of the compounds [24]. The experiment was repeated three times. Vero cells were seeded in 96-well plates in Eagles minimal essential medium (MEM) supplemented with 10% FBS. After 24 h, the media was removed, and the wells were washed with saline. Compounds were dissolved in DMSO, and a series of three-fold dilutions of each compound and pleconaril (1000-4 µg/mL) in MEM without FBS were prepared and added to the cells in quadriplicates (200 µL per well). The maximal concentration of DMSO was 0.5% MEM with 0.5% DMSO and was added to cell control wells. Cells were incubated for 24 h at 37 °C in 5% CO2 in the presence of the dissolved compounds. The cells were then washed with saline, and a solution of 3-(4,5-dimethylthiazolyl-2) 2,5-diphenyltetrazolium bromide (ICN Biochemicals Inc., Aurora, OH, USA) (0.5 µg/mL) in MEM was added to the wells (100 µL per well). After 2 h of incubation at 37 °C in 5% CO2, the supernatant from wells was discarded, and the formazan residue was dissolved in DMSO (100 µL per well). The optical density of cells was then measured on a Victor 21,440 multifunctional reader (Perkin Elmer, Turku, Finland) at a wavelength of 535 nm and plotted against the concentration of the compounds to generate the dose–response curve. The 50% cytotoxic dose (CC50) of each compound (i.e., the compound concentration that causes the death of 50% of cells in a culture, or decreases the optical density twice as compared to the control wells) was calculated using four-parameter logistic nonlinear regression model. For some compounds (35a and 35b) cytotoxicity towards MDCK cell line was determined using the procedure above, but the cells were exposed to compounds for 72 h.

[1] = system: coxsackievirus B3 strain Nancy; test: Viral yield reduction assay against CVB3 in Vero cells; details: for IC50: Vero cells, viral yield reduction, MOI 0.01, 24 h, read-out: IC50 towards CVB3
[2] = system: influenza virus A/Puerto Rico/8/34 (H1N1); test: Antiviral activity against IAV, hemagglutination test in MDCK cells; details: for IC50: MDCK cells, hemagglutination test, 72 h, read-out: IC50 Towards IAV

| Compound | CC50 at 24 h (in vitro) [µM] | IC50 ([1]; Enterovirus B) [µM] | also measured |
| --- | --- | --- | --- |
| Cc1cc(CCC(=O)Oc2ccc(-c3noc(C(F)(F)F)n3)cc2C)on1 [Compound 12b, 2-Methyl-4-(5-(trifluoromethyl)-1,2,4-oxadiazol-3-yl)phenyl 3-(3-methylisoxazol-5-yl)propanoate] | 464 ± 30.3 | 13.1 ± 0.9 | – |
| Cc1cc(-c2noc(C(F)(F)F)n2)ccc1N1CCN(C(=O)c2cc(-c3ccccc3)no2)CC1 [Compound 35a, (4-(2-Methyl-4-(5-(trifluoromethyl)-1,2,4-oxadiazol-3-yl)phenyl)piperazin-1-yl)(3-phenylisoxazol--5-yl)methanone] | 1520 ± 70.3 | > 620 | activity against the influenza virus A (in words) [2]: inactive; IC50 [2]: > 493 µM; CC50 at 72 h (in vitro): 1450 ± 102 µM; activity towards CVB3 (in words) [1]: inactive |
| Cc1cc(CCCOc2c(C)cc(-c3noc(C(F)(F)F)n3)cc2C)on1 [Pleconaril] | 2400 ± 160 | 18.4 ± 1.5 | – |
| CCOC(=O)c1cc(N2CCN(c3ccc(-c4noc(C(F)(F)F)n4)cc3C)CC2)on1 [Compound 28c, Ethyl 5-(4-(2-methyl-4-(5-(trifluoromethyl)-1,2,4-oxadiazol-3-yl)phenyl)piperazin-1-yl)isoxazole-3-carboxylate] | ~53.2 | 48.7 ± 4.4 | – |
| Cc1cc(-c2noc(C(F)(F)F)n2)ccc1N1CCN(C(=O)c2c(-c3ccccc3)noc2C)CC1 [Compound 35b, (5-Methyl-3-phenylisoxazol-4-yl)(4-(2-methyl-4-(5-(trifluoromethyl)-1,2,4-oxadiazol-3-yl)phenyl)pi-perazin-1-yl)methanone] | 2010 ± 121 | 16.1 ± 1.1 | activity against the influenza virus A (in words) [2]: inactive; IC50 [2]: > 604 µM; CC50 at 72 h (in vitro): > 604 µM |
| Cc1cc(CN2CCN(c3ccc(-c4noc(C(F)(F)F)n4)cc3C)CC2)on1 [Compound 28b, 3-(3-Methyl-4-(4-((3-methylisoxazol-5-yl)methyl)piperazin-1-yl)phenyl)-5-(trifluoromethyl)-1,2,4-oxadiazole] | 2460 ± 171 | 41.7 ± 2.1 | – |
| CCOC(=O)c1cc(CCCSc2ccc(-c3noc(C(F)(F)F)n3)cc2C)on1 [Compound 6a, 3-(3-Methyl-4-((3-(3-carbethoxy-isoxazol-5-yl)propyl)thio)phenyl)-5-(trifluoromethyl)-1,2,4-oxadia-zole] | 485 ± 20.1 | 21 ± 1.5 | – |
| Cc1cc(-c2noc(C(F)(F)F)n2)ccc1N1CCN(c2cc(C(=O)N(C)C)no2)CC1 [Compound 28a, N,N-Dimethyl-5-(4-(2-methyl-4-(5-(trifluoromethyl)-1,2,4-oxadiazol-3-yl)phenyl)piperazin-1-yl)iso-xazole-3-carboxamide] | 1870 ± 90.4 | 9.1 ± 0.7 | – |
| CCOC(=O)c1cc(CCC(=O)Oc2ccc(-c3noc(C(F)(F)F)n3)cc2C)on1 [Compound 12a, Ethyl 5-(3-(2-methyl-4-(5-(trifluoromethyl)-1,2,4-oxadiazol-3-yl)phenoxy)-3-oxopropyl)-isoxazole-3-carboxylate] | 683 ± 30.4 | 9.1 ± 0.8 | – |
| Cc1cc(-c2noc(C(F)(F)F)n2)ccc1NC(=O)CCc1cc(C(=O)N(C)C)no1 [Compound 21, N,N-dimethyl-5-(3-((2-methyl-4-(5-(trifluoromethyl)-1,2,4-oxadiazol-3-yl)phenyl)amino)-3-oxopro-pyl)isoxazole-3-carboxamide] | 1690 ± 70.7 | 6.8 | – |
| Cc1cc(CCC(=O)Nc2ccc(-c3noc(C(F)(F)F)n3)cc2C)on1 [Compound 20b, N-(2-Methyl-4-(5-(trifluoromethyl)-1,2,4-oxadiazol-3-yl)phenyl)-3-(3-methylisoxazol-5-yl)propan-amide] | 1740 ± 120 | 76.2 ± 5.3 | – |
| Cc1cc(-c2noc(C(F)(F)F)n2)ccc1SCCCc1cc(C(=O)N(C)C)no1 [Compound 7, N,N-dimethyl-5-(3-((2-methyl-4-(5-(trifluoromethyl)-1,2,4-oxadiazol-3-yl)phenyl)thio)propyl)isoxa-zole-3-carboxamide] | > 2270 | 18.6 ± 1.3 | – |
| Cc1cc(CCCSc2ccc(-c3noc(C(F)(F)F)n3)cc2C)on1 [Compound 6b, 3-(3-Methyl-4-((3-(3-methylisoxazol-5-yl)propyl)thio)phenyl)-5-(trifluoromethyl)-1,2,4-oxadiazole] | > 2610 | 15.6 ± 1.4 | – |
| Methyl 5-(4-(2-methyl-4-(5-(trifluoromethyl)-1,2,4-oxadiazol-3-yl)phenyl)piperazin-1-yl)-isoxazole--3-carboxylate [Compound 28d] | – | – | IC50 [1]: 3.9 ± 0.3 µM |
| CCOC(=O)c1cc(CCC(=O)Nc2ccc(-c3noc(C(F)(F)F)n3)cc2C)on1 [Compound 20a, Ethyl 5-(3-((2-methyl-4-(5-(trifluoromethyl)-1,2,4-oxadiazol-3-yl)phenyl)amino)-3-oxopropyl)isoxa-zole-3-carboxylate] | 1720 ± 70.5 | 18.2 ± 1.6 | – |

Source: publication PMC7144106, “The Evolution of Pleconaril: Modified O-Alkyl Linker Analogs Have Biological Activity towards Coxsackievirus B3 Nancy” (Molecules, 2020)
